The text below walks through data of US8466111B2, “Cyclopenta{G}quinazoline derivatives for the treatment of rheumatoid arthritis or acute myeloid leukaemia” (BTG International Limited, priority 2008, dated 2013).

Read-outs that look alike come from different tables or passages of the source. Bounds are passed on as bounds.

For test [1], the target named is T1, RFC (reduced folate carrier) (Homo sapiens, UniProt P41440).
T1 sequence (P41440 1-591): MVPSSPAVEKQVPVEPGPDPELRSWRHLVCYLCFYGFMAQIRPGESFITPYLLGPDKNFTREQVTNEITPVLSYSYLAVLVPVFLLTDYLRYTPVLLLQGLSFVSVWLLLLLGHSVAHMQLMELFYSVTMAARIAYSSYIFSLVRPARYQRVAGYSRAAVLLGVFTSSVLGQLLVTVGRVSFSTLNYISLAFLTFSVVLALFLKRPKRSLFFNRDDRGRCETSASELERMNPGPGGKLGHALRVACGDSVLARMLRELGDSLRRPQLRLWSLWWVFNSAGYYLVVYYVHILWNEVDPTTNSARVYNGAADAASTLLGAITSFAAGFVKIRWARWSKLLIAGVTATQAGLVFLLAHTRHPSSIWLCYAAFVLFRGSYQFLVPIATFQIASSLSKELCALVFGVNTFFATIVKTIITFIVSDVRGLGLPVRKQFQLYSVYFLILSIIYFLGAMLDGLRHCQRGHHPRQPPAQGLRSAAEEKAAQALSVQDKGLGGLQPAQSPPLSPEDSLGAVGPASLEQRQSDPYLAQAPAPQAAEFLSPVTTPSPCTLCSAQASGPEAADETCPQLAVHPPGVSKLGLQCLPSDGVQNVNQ
Conditions: cited from earlier work.

The target in test [2] is T2, FR-β (Homo sapiens, UniProt P14207).
T2 construct: expressed in transfected cells; host or cells: Chinese Hamster Ovary cells (CHO-β / CHO-FR-β)
T2 sequence (P14207 17-230): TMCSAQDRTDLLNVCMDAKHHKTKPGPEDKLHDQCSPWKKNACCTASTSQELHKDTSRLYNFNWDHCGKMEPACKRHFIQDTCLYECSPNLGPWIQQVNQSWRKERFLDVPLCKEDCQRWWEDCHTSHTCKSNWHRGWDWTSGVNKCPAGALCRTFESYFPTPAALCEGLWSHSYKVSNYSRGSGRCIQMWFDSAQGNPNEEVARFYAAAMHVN
As to the kind of experiment: Intact cell competitive binding of [3H]-folic acid to FR-β (CHO-β cells). Conditions: for FR-β binding affinity relative to folic acid: [3H]-folic acid displacement, 10 min at 4° C. How it is done: (§1) An intact cell binding assay for competitive binding of [^3H]-folic acid and novel anti-folate drugs to FR-β and FR-α was performed essentially as described previously. See Mol. Pharmacol. 1995; 48: […] and Cancer Res. 1995; 55(17): 3795-3802 (both Westerhof et al.). Briefly, CHO-β cells (FR-β transfected Chinese Hamster Ovary cells) and KB cells (FR-α expressing cells) were detached by incubation in PBS+1 mM EDTA. Detached cells were suspended in ice-cold HEPES-buffered saline (140 mM NaCl, 20 mM HEPES, 6 mM KCl, 2 mM MgCl2, 6 mM D-glucose, pH 7.4 with NaOH) to a cell concentration of 3×10^6 and 1×10^6 cells/ml, respectively. One ml of cell suspension was added to a series of Eppendorf tubes containing […] [^3H]-folic acid (specific radioactivity: 2,000 dpm/μmol) in the absence or presence of increasing concentrations of natural folate or folate antagonists. Following 10 minutes at 4° C., cells were centrifuged in an Eppendorf centrifuge (30 s, 10,000 rpm), the supernatant was aspirated and cell pellets were resuspended in 200 μl water and analysed for radioactivity (Optima Gold scintillation fluid, United Technologies, Packard, Brussels, Belgium). Non-specific binding of [^3H] […] For comparison, data for affinities of the RFC for natural folates and folate antagonists were presented from previous studies. See. Mol Pharmacol 1995; 48: 459-471 Westerhof et al.) and Cancer Res. 2005; 65(24): 11721-11728 (Gibbs et al.).

For test [3], the system named is CHO/WT cells. As to the kind of experiment: Cell proliferation inhibition, CHO-WT cells. Particulars: 72 hours. It counts as cell-based, Chinese Hamster. How it is done: (§2) Cell proliferation inhibition assay CHO-WT and CHO-FRβ cells were seeded in individual wells of a 24-well tissue culture plate at a density of 1×10^4/cm^2. […] After 72 hours incubation, cells were harvested by trypsinization and counted for cell viability as described before. See Mol. Pharmacol. 1999; 55(4): 761-769 (Jansen et al.).

Test [4] concerns CHO/FR-β cells. Nature of the test: Cell proliferation inhibition, CHO-FR-β cells. The test is classed as cell-based, Chinese Hamster. Conditions: for Effect of addition of folic acid on growth inhibitory activity: 1 μM folic acid to block FR. How it is done:
as §2

The test system of test [5] is human monocytic-macrophage THP1 cells. As to the kind of experiment: Cell proliferation inhibition, THP1 cells. Conditions: read-out: Growth inhibitory effects, IC50. It counts as cell-based. The protocol:
In other experiments human monocytic-macrophage THP1 cells were tested for antiproliferative effects of folate antagonists. To this end, 1 ml of cell suspension containing 1.25×10^5 cells were plated in individual wells of a 24-well tissue culture plate and incubated with 8 concentrations (with 2.5-fold increments) of folate antagonist drugs. After 72 hours drug exposure cell counts were performed with a haemocytometer and viability was checked by trypan blue exclusion.

The target of test [6] is T3, FR-α (Homo sapiens, UniProt P15328).
T3 construct: KB cells (FR-α expressing cells); host or cells: KB cells
T3 sequence (P15328 25-234): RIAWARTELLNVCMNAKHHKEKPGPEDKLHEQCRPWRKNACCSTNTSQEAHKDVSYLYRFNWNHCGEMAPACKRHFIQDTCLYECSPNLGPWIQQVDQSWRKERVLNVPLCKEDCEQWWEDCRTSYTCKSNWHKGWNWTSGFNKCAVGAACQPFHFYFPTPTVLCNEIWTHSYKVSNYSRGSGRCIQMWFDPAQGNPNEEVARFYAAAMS
Nature of the test: Intact cell competitive binding of [3H]-folic acid to FR-α (KB cells). Conditions: FRα (KB) versus FR-β (CHO-β). The protocol:
as §1, with “Mol Pharmacol 1995; 48: 459-471 Westerhof et al.) and Cancer Res. 2005; 65(24): 11721-11728 (Gibbs et al.).” left out

The subject of test [7] is macrophages (3A5) in synovial sublining layer. Nature of the test: Synovial tissue immunohistochemistry of RA patients treated with MTX. The test is classed as in vivo, human. Conditions: after 4 months of MTX, 219 before treatment, p=0.14. The protocol:
In this study we analysed synovial tissue biopsies derived from the knee joints of 15 RA-patients with active disease before treatment and after 4 months of treatment with MTX (starting dose of MTX: 7.5 mg/week; increasing stepwise to 15 mg/week over 12 weeks). Active disease was defined as ≧6 swollen or tender joints and levels of moderate or worse on the physician's and patient's assessments of disease activity (Disease Activity Score-28; DAS-28). All patients had at least 1 clinically involved knee joint. Low dose prednisone (<10 mg/day) and concomitant stable doses of nonsteroidal anti-inflammatory drug (NSAID) treatment were allowed. None of the patients ever used MTX before enrolling the study. In patients taking other DMARDs, the treatment was terminated following a washout phase of 28 days. […]
Immunohistochemical staining of cryostat sections (4 μm) of synovial tissue biopsies from RA patients and controls was performed using a 3-step immunoperoxidase method as described previously. […] Stained sections were analysed for FR-β, 3A5 and CD3 expression by digital image analysis, as described previously. […] Positive cells were evaluated by analysing 18 consecutive hpfs, scoring numbers of positive cells in the intimal lining layer and the synovial sublining per mm^2.

One may read the IC50 as the point on the concentration scale where inhibition reaches its midpoint. For the molecule `C#CCN(c1ccc(C(=O)N[C@@H](CCC(=O)N[C@H](CCC(=O)O)C(=O)O)C(=O)O)cc1)C1CCc2cc3nc(CO)[nH]c(=O)c3cc21` (mixture of isomers) [BGC 945], the “Affinity for RFC” value in test [1] is “poor affinity for RFC”. For the same molecule, in test [2], the “FR-β binding affinity” value is “relatively high binding affinity” and the “FR-β binding affinity relative to folic acid” value was 89 % of folic acid. Besides, the “Extracellular concentration inducing growth inhibition of CHO/WT cells” value in test [3] was over 1000 nM. For the same molecule, the “Effect of addition of folic acid on growth inhibitory activity” value in test [4] was “completely abrogated”. Also, the “Concentration inducing growth inhibition of CHO/FR-β cells” value in test [4] (72 hours) lay within 10 to 50 nM. Moreover, the “Differential in activity between control CHO cells and FR-β transfected cells” value in test [4] (CHO/WT versus CHO/FR-β) was “largest differential in activity”. Besides, in test [5] (Homo sapiens, THP-1, 72 h), the IC50 amounted to 3630 ± 350 nM.
Regarding `C#CCN(c1ccc(C(=O)N[C@@H](CCC(=O)N[C@H](CCC(=O)O)C(=O)O)C(=O)O)cc1)[C@H]1CCc2cc3nc(CO)[nH]c(=O)c3cc21` [(6S)-BGC 945], the “FR-β binding affinity relative to folic acid” value in test [2] is 46 % of folic acid.
`Nc1nc2c(c(=O)[nH]1)SC(CCc1ccc(C(=O)N[C@@H](CCC(=O)O)C(=O)O)s1)CN2` (stereo partly shown) [AG2034]: in test [2], the “FR-β binding affinity” value was “moderate to high binding affinities” and the “FR-β binding affinity relative to folic acid” value is given as 54 % of folic acid. The “Growth inhibition of CHO/WT cells” value in test [3] is “displayed a growth inhibitory potential”. The “Abrogation of growth inhibitory effects by FR-β blocking (folic acid) and RFC blocking (LV)” value in test [4] (folic acid 1 μM or leucovorin 20 nM, CHO/WT and CHO/FR-β) was “only partial”. Further, the half-inhibitory concentration (IC50) in test [5] (Homo sapiens, THP-1, 72 h) worked out at 3.2 ± 0.2 nM. In addition, in test [6], the “FRα binding affinity, fold higher than FR-β” value was found to be 2.5 fold.
As to `C#CCN(Cc1cc2c(=O)[nH]c(C)nc2cc1C)c1ccc(C(=O)N[C@@H](CCc2nn[nH]n2)C(=O)O)c(F)c1` [BGC 9331], in test [5] (Homo sapiens, THP-1, 72 h), the IC50 came out at 8.7 ± 0.8 nM.
On to `C#CN(Cc1cc2c(=O)[nH]c(N)nc2cc1C)c1ccc(C(=O)N[C@@H](CCC(=O)CN[C@H](CCCC(=O)O)C(=O)O)C(=O)O)c(F)c1` [CB300635], for which, in test [1], the “Affinity for RFC” value is listed as “poor affinity for RFC”. For the same molecule, in test [2], the “FR-β binding affinity” value is reported as “relatively high binding affinity” and the “FR-β binding affinity relative to folic acid” value is 161 % of folic acid. Moreover, the “Effect of addition of folic acid on growth inhibitory activity” value in test [4] is reported as “abrogated activity”. The “Growth inhibition of CHO/FR-β cells” value in test [4] (72 hours) is given as “not markedly potent”. Besides, the IC50 in test [5] (Homo sapiens, THP-1, 72 h) is 4850 ± 285 nM.
Consider `Nc1nc2c(c(=O)[nH]1)CC(CCc1ccc(C(=O)N[C@@H](CCC(=O)O)C(=O)O)cc1)CN2` (stereo partly shown) [DDATHF, 5,10-dideazatetrahydrofolate], for which, in test [2], the “FR-β binding affinity” value is recorded as “moderate to high binding affinities” and the “FR-β binding affinity relative to folic acid” value is recorded as 27 % of folic acid. Also, in test [5] (Homo sapiens, THP-1, 72 h), the 50% inhibitory concentration (IC50) was 9.8 ± 0.8 nM. Besides, the “FRα binding affinity, fold higher than FR-β” value in test [6] was found to be 2.5 fold.
On to `Cc1nc2ccc3ccc(CNc4ccc5c(c4)CN([C@@H](CCC(=O)O)C(=O)O)C5=O)cc3c2c(=O)[nH]1` [GW1843], for which the “FR-β binding affinity” value in test [2] is recorded as “relatively high binding affinity”. In test [5] (Homo sapiens, THP-1, 72 h), the half-maximal inhibitory concentration (IC50) amounted to 1.6 ± 0.1 nM.
`CN(Cc1cnc2nc(N)nc(N)c2n1)c1ccc(C(=O)N[C@@H](CCC(=O)O)C(=O)O)cc1` [MTX, methotrexate]: the “FR-β binding affinity, fold lower than for folic acid” value in test [2] was “approximately 50 fold”. Further, the “Median numbers of macrophages after MTX treatment” value in test [7] was 119 positive cell counts in the synovial sublining layer/mm^2. For the same molecule, in test [5] (Homo sapiens, THP-1, 72 h), the IC50 is 7.1 ± 0.5 nM.
Take `Nc1nc(N)c2nc(CNc3ccc(C(=O)N[C@@H](CCCNC(=O)c4ccccc4C(=O)O)C(=O)O)cc3)cnc2n1` [PT523]: the “FR-β binding affinity relative to folic acid” value in test [2] is 0.3 % of folic acid. Also, the 50% inhibitory concentration (IC50) in test [5] (Homo sapiens, THP-1, 72 h) came to 2.2 ± 0.3 nM.
For `Cc1c(CNc2ccc(C(=O)N[C@@H](CCCNC(=O)c3ccccc3C(=O)O)C(=O)O)cc2)cnc2nc(N)nc(N)c12` [PT644], the “FR-β binding affinity” value in test [2] is “affinity comparable to MTX”. Also, the IC50 in test [5] (Homo sapiens, THP-1, 72 h) was 1 ± 0.4 nM.
As to `Cc1nc2ccc(CN(C)c3ccc(C(=O)N[C@@H](CCC(=O)O)C(=O)O)s3)cc2c(=O)[nH]1` [Raltitrexed], in test [5] (Homo sapiens, THP-1, 72 h), the IC50 was 2.4 ± 0.5 nM.
Take Pemetrexed: the IC50 in test [5] (RPMI-1640 with 2.2 μM folic acid, 72 hours drug exposure, mean ± S.D. of 3 experiments) came to 10.7 ± 2.2 nM.
